Literature values as cited in patent publication US20060024247A1, “Oral care formulations comprising highly bioavailable Coenzyme Q-10 cyclodextrin complex” (BioActives, LLC, priority 2004, published 2006).

bioavailability: very poor
solubility in water: practically insoluble in water
SMILES: COC1=C(OC)C(=O)C(C/C=C(\C)CC/C=C(\C)CC/C=C(\C)CC/C=C(\C)CC/C=C(\C)CC/C=C(\C)CC/C=C(\C)CC/C=C(\C)CC/C=C(\C)CCC=C(C)C)=C(C)C1=O [CoQ-10, Coenzyme Q-10]
